Converted amounts (≈) assume the structure as drawn. Like-named read-outs stand apart in the source and are kept apart here. Starred links: 1 amine or outer side, 2 acyl side, 3 side chain; linkers in the order of their positions; H or OH if unused. Positions of bridges follow the written chain, without caps; N, C: chain ends. Non-standard residues stand in square brackets, D forms with d. Residues, ends and D or L forms follow the SMILES beside them. X3 = CC(C)CCCCCCC[C@H](CC(=O)[*:1])O[*:2]; X4 = CCCCCCC=CC[C@H](CC(=O)[*:1])O[*:2]; Val(3-OH) = CC(C)(O)[C@H](N)C(=O)O; X1 = C/C=C(/N[*:1])C(=O)[*:2]; Dab = NCC[C@H](N)C(=O)O; Dap = NC[C@H](N)C(=O)O
How the values were obtained:
[1] = tested on: S. aureus; assay type: cell-based, Staphylococcus aureus
Source text: (§1) 2015. M7-A10. Methods for dilution antimicrobial susceptibility tests for bacteria that grow aerobically, 10th ed. Approved standard. CLSI, Wayne, Pa.).
(§2) A) In the broth micro-dilution method, the test media were either AM3 Broth (BD Difco Ltd) mixed with phosphate buffered saline (PBS, Amresco LLC, Solon, USA) in 1:4 ratio (E. colt A. baumannii, Enterobacter cloacae, Klebsiella pneumonia and P. aeruginosa), AM3 Broth mixed with PBS in 1:1 ratio (S. aureus) or Malt Extract (ME; 15 g Malt Extract Dico Ltd. in 1000 mL deionized H2O; Aspergillus fumigatus). Prior to MIC-tests, the bacterial cell concentration/fungal spore concentration was adjusted to between 1 and 5×10^5 cells/spores per mL. […] Afterwards, suspensions of pathogen cells in the appropriate medium were dispensed to the wells of microtiter plates and the growth of pathogens were monitored after 16 to 20 h of incubation at 37° C. in the dark. Positive control comprised respective pathogen cells suspended in untreated sterile appropriate media without addition of compounds(s) and negative control comprised the medium only. The MIC was defined as the lowest concentration of each compound with no visible growth of pathogen. All MIC tests were performed in duplicate and/or triplicate and repeated at least twice.

[2] = tested on: HepG2
Procedure: IC50, haemolysis rate and frequency of resistance (FoR, Table 4) was determined using standard protocols by different CROs.

[3] = tested on: E. coli; assay type: cell-based, Escherichia coli
Source text: as §1, §2

[4] = tested on: E. cloacae; assay type: cell-based, Enterobacter cloacae
Source text: as §1, §2

[5] = tested on: K. pneumoniae; assay type: cell-based, Klebsiella pneumonia
Source text: as §1, §2

[6] = tested on: A. baumannii; assay type: cell-based, Acinetobacter baumannii
Source text: as §1, §2

[7] = tested on: P. aeruginosa; assay type: cell-based, Pseudomonas aeruginosa
Source text: as §1, §2

[8] = method A, only lower limit of concentration range shown ("16" means "16-32")

Compound | MIC S. aureus LMG15975 [1, 8] | IC50 (HepG2) ([2]; HepG2, determined by a CRO) | MIC E. coli LMG15862 [3, 8] | MIC E. cloacae LMG2783T [4, 8] | MIC K. pneumonia LMG20218 [5, 8] | MIC A. baumannii LMG1041T [6, 8] | MIC P. aeruginosa LMG6395 [7, 8] | MIC S. aureus LMG15975 [1] | MIC E. coli LMG15862 [3] | MIC E. cloacae LMG2783T [4] | MIC K. pneumonia LMG20218 [5] | MIC A. baumannii LMG1041T [6] | MIC P. aeruginosa LMG6395 [7] | IC50 (HepG2) [2]
Table 2 cyclic lipodepsipeptide: R C7H15; DAPA-Leu-DABA-ABA-Thr-DAPA-Phe-OHVal-Asp [U744] | >32 µg/mL | 72 µg/mL | 16 µg/mL | 16 µg/mL | 8 µg/mL | 16 µg/mL | 16 µg/mL | – | – | – | – | – | – | –
Table 2 cyclic lipodepsipeptide: R C8H17; DAPA-Leu-DABA-ABA-Thr-DAPA-Phe-OHVal-Asp [U755b] | 16 µg/mL | 34 µg/mL | 8 µg/mL | 2 µg/mL | 8 µg/mL | 2 µg/mL | 4 µg/mL | – | – | – | – | – | – | –
C/C=C1/NC(=O)[C@H](CCN)NC(=O)[C@H](CC(C)C)NC(=O)[C@H](CN)NC(=O)C[C@@H](CC=CCCCCCC)OC(=O)[C@H](CC(=O)O)NC(=O)[C@H](C(C)(C)O)NC(=O)[C@@H](Cc2ccccc2)NC(=O)[C@H](CN)NC(=O)[C@H]([C@@H](C)O)NC1=O [U756, cyclo-((R)-3-hydroxydodec-5-enoyl-L-DAPA-L-Leu-L-DABA-ABA-L-Thr-L-DAPA-D-Phe-L-OHVal-L-Asp)] ([Dap]L[Dab][X1]T[Dap][dF][Val(3-OH)]D; linker N-C via X4) | – | – | – | – | – | – | – | 4 µg/mL (≈ 3.5 µM) | 1 µg/mL (≈ 0.875 µM) | 2 µg/mL (≈ 1.75 µM) | 2 µg/mL (≈ 1.75 µM) | 1 µg/mL (≈ 0.875 µM) | 4 µg/mL (≈ 3.5 µM) | –
Table 2 cyclic lipodepsipeptide: R C8H17; DAPA-Leu-DABA-ABA-Thr-DAPA-Phe-OHVal-Asp [U755a] | 16 µg/mL | 39 µg/mL | 8 µg/mL | 8 µg/mL | 8 µg/mL | 8 µg/mL | 8 µg/mL | – | – | – | – | – | – | –
Table 2 cyclic lipodepsipeptide: R C8H17; DAPA-Leu-DABA-ABA-Thr-DAPA-Phe-OHVal-Asp [U751] | 16 µg/mL | 29 µg/mL | 2 µg/mL | 4 µg/mL | 4 µg/mL | 4 µg/mL | 8 µg/mL | – | – | – | – | – | – | –
Table 2 cyclic lipodepsipeptide: R C9H17; DAPA-Leu-DABA-ABA-Thr-DAPA-Phe-OHVal-Asp [U757] | 16 µg/mL | 28 µg/mL | 8 µg/mL | 8 µg/mL | 8 µg/mL | 4 µg/mL | 8 µg/mL | – | – | – | – | – | – | –
Table 2 cyclic lipodepsipeptide: R C9H17; DAPA-Leu-DABA-ABA-Thr-DAPA-Phe-Val-Asp [U775] | 16 µg/mL | 9 µg/mL | 4 µg/mL | 4 µg/mL | 16 µg/mL | 8 µg/mL | 4 µg/mL | – | – | – | – | – | – | –
Table 2 cyclic lipodepsipeptide: R C9H17; DAPA-Leu-DABA-ABA-Thr-DAPA-Phe-Val-Asp [U771] | 2 µg/mL | 9 µg/mL | 1 µg/mL | 2 µg/mL | 2 µg/mL | 1 µg/mL | 2 µg/mL | – | – | – | – | – | – | –
C/C=C1/NC(=O)[C@H](CCN)NC(=O)[C@H](CC(C)C)NC(=O)[C@H](CN)NC(=O)C[C@@H](CCCCCCCC(C)C)OC(=O)[C@H](CC(=O)O)NC(=O)[C@H](C(C)(C)O)NC(=O)[C@@H](Cc2ccccc2)NC(=O)[C@H](CN)NC(=O)[C@H]([C@@H](C)O)NC1=O [U773, cyclo-((R)-3-hydroxy-11-methyldodecanoyl-L-DAPA-L-Leu-L-DABA-ABA-L-Thr-L-DAPA-D-Phe-L-OHVal-L-Asp)] ([Dap]L[Dab][X1]T[Dap][dF][Val(3-OH)]D; linker N-C via X3) | – | – | – | – | – | – | – | 16 µg/mL (≈ 13.8 µM) | 2 µg/mL (≈ 1.73 µM) | 8 µg/mL (≈ 6.9 µM) | 16 µg/mL (≈ 13.8 µM) | 4 µg/mL (≈ 3.45 µM) | 8 µg/mL (≈ 6.9 µM) | 8 µg/mL (≈ 6.9 µM)

Further lines, results first:

MIC S. aureus LMG15975 [1, 8] | IC50 (HepG2) ([2]; HepG2, determined by a CRO) | MIC E. coli LMG15862 [3, 8] | MIC E. cloacae LMG2783T [4, 8] | MIC K. pneumonia LMG20218 [5, 8] | MIC A. baumannii LMG1041T [6, 8] | MIC P. aeruginosa LMG6395 [7, 8] | MIC S. aureus LMG15975 [1] | MIC E. coli LMG15862 [3] | MIC E. cloacae LMG2783T [4] | MIC K. pneumonia LMG20218 [5] | MIC A. baumannii LMG1041T [6] | MIC P. aeruginosa LMG6395 [7] | IC50 (HepG2) [2] | Compound
16 µg/mL | 12 µg/mL | 8 µg/mL | 8 µg/mL | >32 µg/mL | 8 µg/mL | 16 µg/mL | – | – | – | – | – | – | – | Table 2 cyclic lipodepsipeptide: R C10H21; DAPA-Leu-DABA-ABA-Thr-DAPA-Phe-Val-Asp [U800]
16 µg/mL | 23 µg/mL | 8 µg/mL | 16 µg/mL | >32 µg/mL | 8 µg/mL | 16 µg/mL | – | – | – | – | – | – | – | Table 2 cyclic lipodepsipeptide: R C9H17; DAPA-Leu-DABA-ABA-Thr-Asn-Phe-Val-Asp [U826]
– | – | – | – | – | – | – | >32 µg/mL | 16 µg/mL (≈ 13.7 µM) | >32 µg/mL | >32 µg/mL | 16 µg/mL (≈ 13.7 µM) | >32 µg/mL | 35 µg/mL (≈ 29.9 µM) | C/C=C1/NC(=O)[C@H](CCN)NC(=O)[C@H](CC(C)C)NC(=O)[C@H](CC(N)=O)NC(=O)C[C@@H](CCCCCCCC(C)C)OC(=O)[C@H](CC(=O)O)NC(=O)[C@H](C(C)C)NC(=O)[C@@H](Cc2ccccc2)NC(=O)[C@H](CN)NC(=O)[C@H]([C@@H](C)O)NC1=O [U824, cyclo-((R)-3-hydroxy-11-methyldodecanoyl-L-Asn-L-Leu-L-DABA-ABA-L-Thr-L-DAPA-D-Phe-L-Val-L-Asp)] (NL[Dab][X1]T[Dap][dF]VD; linker N-C via X3)
8 µg/mL | 22 µg/mL | 16 µg/mL | >32 µg/mL | >32 µg/mL | 8 µg/mL | 16 µg/mL | – | – | – | – | – | – | – | Table 2 cyclic lipodepsipeptide: R C10H21; Asn-Leu-DABA-ABA-Thr-DAPA-Phe-Val-Asp [U842]
– | – | – | – | – | – | – | >32 µg/mL | 4 µg/mL (≈ 3.5 µM) | 16 µg/mL (≈ 14 µM) | >32 µg/mL | 4 µg/mL (≈ 3.5 µM) | 8 µg/mL (≈ 7 µM) | 9 µg/mL (≈ 7.87 µM) | C/C=C1/NC(=O)[C@H](CCN)NC(=O)[C@H](CC(C)C)NC(=O)[C@H](CN)NC(=O)C[C@@H](CCCCCCCC(C)C)OC(=O)[C@H](CC(=O)O)NC(=O)[C@H](C(C)C)NC(=O)[C@@H](Cc2ccccc2)NC(=O)[C@H](CN)NC(=O)[C@H]([C@@H](C)O)NC1=O [U793, cyclo-((R)-3-hydroxy-11-methyldodecanoyl-L-DAPA-L-Leu-L-DABA-ABA-L-Thr-L-DAPA-D-Phe-L-Val-L-Asp)] ([Dap]L[Dab][X1]T[Dap][dF]VD; linker N-C via X3)

— US20210269483A1, “PEPTIDE COMPOUNDS” (ULTUPHARMA AB, priority 2018, published 2021)
